Experimental data taken from US9386938B2, “Methods for collagen imaging” (Collagen Medical, LLC, priority 2005, dated 2016).
Several values for one entry are separate records, joined by “and”; a condition that tells them apart may be missing. Identical values can stand only once. Like-named read-outs stand apart in the source and are kept apart here. Each block holds one compound with its values, some of them ahead of it. Bridge positions count the residues as written; N and C are the ends. Ends that are not written are not given here. Glu‑DTPA‑Gd = N-terminal Glu-DTPA-Gd chelate (gadolinium DTPA complex on glutamic acid)

Assays:
[1] = Heart uptake in mice, gadolinium by ICP-MS; settings: mouse, mesentery vein injection
infarcted myocardium = assay: Myocardial infarction MR imaging in mouse, 7 days post MI; format: in vivo, C57BL/6 mouse; settings: 25 μmol/kg i.v. bolus
myocardium = assay: Myocardial MR imaging in mouse; format: in vivo, C57BL/6 mouse; settings: 25 μmol/kg i.v. bolus, 4.7-T
[2] = In vivo heart uptake of collagen binding agent and non-binding analog; settings: mouse, 10 μmol/kg tail vein, 15 minutes post-injection, N=4
[3] = Biodistribution analysis in rats (heart and blood radioactivity); settings: rat
rat type I collagen = target: T1, rat type I collagen (Rattus norvegicus, UniProt P02454+P02466); assay: MR phantom imaging at 4.7 T of rat collagen gel samples; settings: samples 4 and 8 (centrifuged)
T1 construct: Rat collagen (acid soluble, type I, rat tail); purchased Upstate USA, Inc 08-115; host or cells: rat tail (tissue extract)
T1 sequence (P02454 152-1207 limits assumed): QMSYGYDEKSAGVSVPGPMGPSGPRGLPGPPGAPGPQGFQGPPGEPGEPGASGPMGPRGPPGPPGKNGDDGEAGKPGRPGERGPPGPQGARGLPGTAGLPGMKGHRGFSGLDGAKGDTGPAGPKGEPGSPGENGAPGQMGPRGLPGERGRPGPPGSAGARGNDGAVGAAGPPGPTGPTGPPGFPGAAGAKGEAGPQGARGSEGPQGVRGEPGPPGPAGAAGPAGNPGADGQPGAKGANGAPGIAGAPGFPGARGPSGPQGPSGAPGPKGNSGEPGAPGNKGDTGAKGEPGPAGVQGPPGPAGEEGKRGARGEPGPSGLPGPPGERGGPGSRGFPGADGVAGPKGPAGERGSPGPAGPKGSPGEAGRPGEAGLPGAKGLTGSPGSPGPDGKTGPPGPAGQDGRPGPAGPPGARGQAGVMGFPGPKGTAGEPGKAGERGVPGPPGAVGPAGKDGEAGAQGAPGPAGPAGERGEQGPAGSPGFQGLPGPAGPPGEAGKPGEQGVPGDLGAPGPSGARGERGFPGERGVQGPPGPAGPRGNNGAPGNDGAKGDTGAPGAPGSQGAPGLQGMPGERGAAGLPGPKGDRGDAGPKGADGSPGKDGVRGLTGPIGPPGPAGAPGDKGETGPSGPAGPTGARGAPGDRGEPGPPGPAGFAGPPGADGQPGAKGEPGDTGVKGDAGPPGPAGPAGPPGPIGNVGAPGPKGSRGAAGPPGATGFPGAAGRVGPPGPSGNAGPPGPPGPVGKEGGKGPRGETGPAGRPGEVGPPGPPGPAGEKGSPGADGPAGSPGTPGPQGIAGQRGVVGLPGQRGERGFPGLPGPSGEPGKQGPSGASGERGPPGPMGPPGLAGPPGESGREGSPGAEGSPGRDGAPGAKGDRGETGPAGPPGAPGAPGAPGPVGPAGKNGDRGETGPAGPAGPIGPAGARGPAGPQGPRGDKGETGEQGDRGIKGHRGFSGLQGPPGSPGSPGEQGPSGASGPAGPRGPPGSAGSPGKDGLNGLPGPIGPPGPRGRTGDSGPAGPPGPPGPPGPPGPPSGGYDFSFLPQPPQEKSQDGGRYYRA
T1 sequence (P02466 86-1125 limits assumed): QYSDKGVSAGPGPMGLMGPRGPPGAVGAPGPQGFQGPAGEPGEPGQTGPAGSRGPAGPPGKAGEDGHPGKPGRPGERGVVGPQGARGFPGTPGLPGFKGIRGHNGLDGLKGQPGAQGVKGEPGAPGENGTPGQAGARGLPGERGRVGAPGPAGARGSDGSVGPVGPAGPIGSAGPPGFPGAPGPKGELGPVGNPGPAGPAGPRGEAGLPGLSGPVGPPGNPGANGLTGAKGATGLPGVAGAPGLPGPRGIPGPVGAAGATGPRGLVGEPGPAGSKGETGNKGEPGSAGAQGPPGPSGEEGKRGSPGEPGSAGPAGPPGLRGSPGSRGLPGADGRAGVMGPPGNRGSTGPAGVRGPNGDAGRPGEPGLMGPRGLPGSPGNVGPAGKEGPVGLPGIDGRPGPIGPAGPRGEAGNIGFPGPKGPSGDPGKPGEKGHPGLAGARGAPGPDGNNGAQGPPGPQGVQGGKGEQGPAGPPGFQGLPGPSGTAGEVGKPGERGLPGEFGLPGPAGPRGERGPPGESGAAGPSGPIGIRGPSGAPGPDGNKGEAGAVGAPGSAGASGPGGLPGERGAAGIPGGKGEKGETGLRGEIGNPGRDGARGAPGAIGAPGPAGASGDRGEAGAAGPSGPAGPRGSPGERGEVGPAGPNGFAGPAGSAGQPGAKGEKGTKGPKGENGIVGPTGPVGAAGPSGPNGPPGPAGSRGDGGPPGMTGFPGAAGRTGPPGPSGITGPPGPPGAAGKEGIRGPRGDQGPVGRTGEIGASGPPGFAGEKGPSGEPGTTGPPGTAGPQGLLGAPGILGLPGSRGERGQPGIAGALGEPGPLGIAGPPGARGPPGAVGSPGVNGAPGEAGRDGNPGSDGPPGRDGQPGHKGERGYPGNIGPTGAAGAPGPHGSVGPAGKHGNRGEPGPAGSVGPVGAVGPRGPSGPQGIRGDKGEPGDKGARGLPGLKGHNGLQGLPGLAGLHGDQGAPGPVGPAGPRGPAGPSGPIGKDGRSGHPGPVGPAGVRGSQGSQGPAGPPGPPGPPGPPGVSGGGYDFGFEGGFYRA
Description: Samples: • 1. […] Sample prepared as sample 2, but centrifuged to separate insoluble rat collagen gel • 5. Sample prepared as sample 3, but centrifuged to separate insoluble human collagen gel • 6. 27 μM GdDTPA solution in PBS, pH 7.4 • 7. 27 μM GdDTPA in a solution of 5.0 μM rat type I collagen in 10 mM phosphate buffer, pH 5 incubated at 37° C. overnight to form a gel • 8. Sample prepared as in sample 7, but centrifuged to separate insoluble rat collagen gel • 9. Homogeneous gel of 5 μM rat collagen • 10. Homogeneous gel of 7.5 μM human collagen
Samples for imaging were placed in glass tubes that were in turn placed in tubes containing water. Images were acquired at 4.7 T on a Bruker Biospec Imager using a Multi-Slice Multi-Echo Method with variable Relaxation Delay (MSMEVTR) experiment. The spin echo time and the relaxation delay were set to TE=11.2 ms and TR=500 ms, respectively with a flip angle of 30°. Images were acquired of sample 2, sample 4, sample 7, and sample 8. […] Sample 7 and 8 show uniform signal intensity.

[4] = tested on: perfused Langendorff rat heart; assay: Washout kinetics from perfused Langendorff rat heart; settings: perfusion with buffer for 10 minutes
Description: (§1) After deep anesthesia with pentobarbital (80 mg/kg ip), the chest cavity of a male Sprague Dawley rat (300 g) was opened, retracted and the heart was removed immediately and placed in an ice-cold normal Krebs-Henseleit (K-H) solution (NaCl, 118 mM; KCl, 4.7 mM; CaCl2, 2.5 mM; MgSO4, 1.2 mM; KH2PO4, 1.2 mM; NaHCO3, 25 mM; glucose, 5.5 mM). A K-H buffer filled 20 Gauge needle was inserted into the apex of the heart penetrating into the bottom of the chamber. This was attached to a pressure transducer used to record and monitor heart function. Perfusion pressure (˜60 mmHg) was monitored using a second transducer. The heart was perfused at a constant flow rate of 10-12 mL/min with 37° C. Krebs-Henseleit buffer saturated with a mixture of 95% O2 and 5% CO2 gas. The heart was paced at 300 beats/min.
A Langendorff rat heart preparation was perfused with K-H buffer at a rate of 10-12 mL/min. A one mL solution containing SEQ ID NO: 144 (300 μM), radiolabeled (I-125) SEQ ID NO: 144 (1-6 μCi), GdDTPA (300 μM), and radiolabeled (Tc-99m) DTPA (5-8 μCi) was infused into the heart at a rate of 1 mL/min. After the infusion was finished, the heart was either removed or perfusion was allowed to continue for an additional 10 minutes and then the heart was removed. The perfusion buffer was not recirculated through the heart. After removal of any connective tissue, the heart was opened, fluid in the chambers drained, and the interior blotted dry with filter paper. The heart was then weighed and the radioactivity in the heart measured with a Packard Cobra 5003 Gamma Scintillation counter. […] An aliquot of the K-H buffer was also weighed and counted. Concentration estimates were decay corrected. Studies were performed at least in duplicate.
A Langendorff rat heart preparation was perfused with K-H buffer at a rate of 10-12 mL/min. […] The heart was then weighed and the radioactivity in the heart measured with a Packard Cobra 5003 Gamma Scintillation counter. […] An aliquot of the K-H buffer was also weighed and counted. […]

[5] = rat, in vivo
[6] = tested on: perfused Langendorff rat heart; assay: Equilibrium binding to perfused Langendorff rat heart; settings: 10 minutes
Description: as §1
Two peptide test articles, a high collagen binding peptide (SEQ ID NO: 144) and a low collagen binding peptide (SEQ ID NO: 173), are compared to GdDTPA. The appropriate test article was added to the K-H buffer solution to a total concentration of either 3 or 30 μM. Also added to the K-H buffer was a radiotracer analog of each peptide or GdDTPA. For the peptides, the radiotracer was an aliquot of the appropriate 1-125 labeled peptide derivative (see Example 5 for protocol). For GdDTPA, the tracer added was Tc-99m labeled DTPA. The amount of radioactivity added to the buffer solution was 1-5 μCi.
The heart was perfused for a period of 10 minutes and the perfusion solution was recycled through the heart. The total volume of K-H buffer used was 50-60 mL. After 10 min, the heart was removed from the apparatus and any connective tissue was removed. The heart was opened, fluid in the chambers drained, and the interior blotted dry with filter paper. The heart was then weighed and the radioactivity in the heart measured with a Packard Cobra 5003 Gamma Scintillation counter. An aliquot of the K-H buffer was also weighed and counted. Studies were performed at least in duplicate.
The dual peptide gadolinium tetramer (Compound ID 803) was compared to GdDTPA. Compound ID 803 and GdDTPA were added to the K-H buffer solution to a total concentration of 3 μM. Also added to the K-H buffer was a radiotracer analog of Compound ID 803 or GdDTPA. For Compound ID 803, the radiotracer was an aliquot of the In-111 labeled compound. For GdDTPA, the tracer added was Tc-99m labeled DTPA. The amount of radioactivity added to the buffer solution was 1-5 μCi.

Compound: CC(C)C[C@H](NC(=O)[C@@H]1CSSC[C@H](NC(=O)[C@H](Cc2c[nH]cn2)NC(=O)[C@H](Cc2c[nH]c3ccccc23)NC(=O)[C@H](CCCCNC(=O)CNC(=S)Nc2ccc(C[C@@H](CN(CCN(CC(=O)O)CC(=O)O)CC(=O)O)N(CC(=O)O)CC(=O)O)cc2)NC(=O)CNC(=S)Nc2ccc(C[C@@H](CN(CCN(CC(=O)O)CC(=O)O)CC(=O)O)N(CC(=O)O)CC(=O)O)cc2)C(=O)N[C@@H]([C@@H](C)O)C(=O)N[C@@H]([C@@H](C)O)C(=O)N[C@@H](CCCCNC(=S)Nc2ccc(C[C@@H](CN(CCN(CC(=O)O)CC(=O)O)CC(=O)O)N(CC(=O)O)CC(=O)O)cc2)C(=O)N[C@@H](Cc2ccccc2)C(=O)N2CCC[C@H]2C(=O)N[C@@H](Cc2c[nH]cn2)C(=O)N[C@@H](Cc2c[nH]cn2)C(=O)N[C@@H](Cc2ccc(O)cc2)C(=O)N1)C(=O)N[C@@H](Cc1ccc(O)cc1)C(=O)N[C@@H](Cc1ccc(-c2ccccc2)cc1)C(N)=O [Compound ID 800]
retention of gadolinium in the heart [1]: ≥ 30 min
MR enhancement of infarcted regions (infarcted myocardium): hyperenhancement of infarcted zones
persistence of enhancement (infarcted myocardium): at least 1 hour
persistence of positive enhancement of the myocardium (myocardium): at least 1 hour

Compound: CC(C)C[C@H](NC(=O)[C@@H]1CSSC[C@@H](NC(=O)[C@H](Cc2c[nH]cn2)NC(=O)[C@H](Cc2c[nH]c3ccccc23)NC(=O)[C@H](CCCCNC(=O)CNC(=S)Nc2ccc(C[C@@H](CN(CCN(CC(=O)O)CC(=O)O)CC(=O)O)N(CC(=O)O)CC(=O)O)cc2)NC(=O)CNC(=S)Nc2ccc(C[C@@H](CN(CCN(CC(=O)O)CC(=O)O)CC(=O)O)N(CC(=O)O)CC(=O)O)cc2)C(=O)N[C@@H]([C@@H](C)O)C(=O)N[C@@H]([C@@H](C)O)C(=O)N[C@@H](CCCCNC(=S)Nc2ccc(C[C@@H](CN(CCN(CC(=O)O)CC(=O)O)CC(=O)O)N(CC(=O)O)CC(=O)O)cc2)C(=O)N[C@@H](Cc2ccccc2)C(=O)N2CCC[C@H]2C(=O)N[C@@H](Cc2c[nH]cn2)C(=O)N[C@@H](Cc2c[nH]cn2)C(=O)N[C@@H](Cc2ccc(O)cc2)C(=O)N1)C(=O)N[C@@H](Cc1ccc(O)cc1)C(=O)N[C@@H](Cc1ccc(-c2ccccc2)cc1)C(N)=O [Compound ID 1019]
Gadolinium concentration in the blood [2]: 13.3±0.3 nmol Gd/g tissue
Gadolinium concentration in the heart [2]: 14.7±1.0 nmol Gd/g tissue

Heart:Blood ([3]; 1 min post injection): 0.26
Heart:Blood ([3]; 5 min post injection): 0.26
Compound: O=C([O-])CN(CCN(CC(=O)[O-])CC(=O)O)CCN(CC(=O)[O-])CC(=O)O.[Gd+3] [GdDTPA, gadolinium diethylenetriaminepentaacetate, reference compound]
MR signal of centrifuged rat collagen gel pellet versus supernatant (rat type I collagen): no increased concentration of GdDTPA in the gel relative to the supernatant
amount remaining in heart at 10 minutes after infusion relative to 0 minutes post infusion [4]: 0.5% and 2.2%

Compound: Glu-DTPA-Gd-G.Q.W.H.C.T.T.R.F.P.H.H.Y.C.L.Y.G-PEG-H ({Glu‑DTPA‑Gd}-GQWHCTTRFPHHYCLYG; disulfide 5-14 (inferred); not fully specified (C-terminus)) [SEQ ID NO. 186]
MR signal of centrifuged rat collagen gel pellet versus supernatant (rat type I collagen): the pellet for sample 4 was much brighter than the supernatant

heart uptake relative to GdDTPA [6]: about 10 times
Compound: Q W T C S G D A Y T W H C N Y E (GQWTCSGDAYTWHCNYE; disulfide 5-14 (inferred); not fully specified (C-terminus)) [SEQ ID NO. 144, -G- linker at the N-terminus]
amount remaining in heart at 10 minutes after infusion relative to 0 minutes post infusion [4]: 68%
Heart:Blood [5]: 0.38
